Source: patent US20260042764A1, “COMPOSITIONS AND METHODS FOR INHIBITION OF KRAS” (TheRas, Inc., priority 2022, published 2026)

Columns and labels:
[1] = molecular target: T1, Avi-KRAS G12R (1-169) GppNHp/RAF1 RBD-3xFLAG (52-151) (Homo sapiens, UniProt P01116, G12R); test: Raf1-KRAS G12R-GppNHP disruption HTRF assay (Biological Example 1); assay type: binding; settings: KRAS G12R, GppNHp-loaded; Table 11
T1 construct: Avi-KRAS G12R (1-169)
In short: (§1)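 First, protein mix in Tris pH 7.5 buffer with NaCl, MgCl2, BSA, Tween and 10% DMSO is incubated 1 h at room temperature. Next, reagent mix is added and incubated a further 1 h at room temperature. Finally, HTRF is read and activity normalized to DMSO.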

[2] = molecular target: T2, Avi-KRAS WT (1-169) GppNHp/RAF1 RBD-3xFLAG (52-151) (Homo sapiens, UniProt P01116); test: Raf1-KRAS WT-GppNHP disruption HTRF assay (Biological Example 1); assay type: binding; settings: KRAS WT, GppNHp-loaded; Table 11
T2 construct: Avi-KRAS WT (1-169)
T2 sequence (P01116 1-169 isoform P01116-2): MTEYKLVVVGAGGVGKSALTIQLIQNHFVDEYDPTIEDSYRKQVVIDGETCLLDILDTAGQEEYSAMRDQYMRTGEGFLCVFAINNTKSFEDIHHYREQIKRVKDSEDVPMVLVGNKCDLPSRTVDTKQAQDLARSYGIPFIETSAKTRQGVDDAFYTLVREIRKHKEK
In short: as §1

[3] = molecular target: T3, Avi-KRAS G12V (1-169) GppNHp/RAF1 RBD-3xFLAG (52-151) (Homo sapiens, UniProt P01116, G12V); test: Raf1-KRAS G12V-GppNHP disruption HTRF assay (Biological Example 1); assay type: binding; settings: KRAS G12V, GppNHp-loaded; Table 11
T3 construct: Avi-KRAS G12V (1-169)
T3 sequence (P01116 1-169 isoform P01116-2 G12V): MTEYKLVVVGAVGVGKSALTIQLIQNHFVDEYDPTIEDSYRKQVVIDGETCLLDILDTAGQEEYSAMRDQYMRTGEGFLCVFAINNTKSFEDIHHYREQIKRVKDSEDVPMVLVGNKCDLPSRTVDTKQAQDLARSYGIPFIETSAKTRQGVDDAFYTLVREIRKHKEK
In short: as §1

[4] = molecular target: T4, Avi-KRAS G12D (1-169) GppNHp/RAF1 RBD-3xFLAG (52-151) (Homo sapiens, UniProt P01116, G12D); test: Raf1-KRAS G12D-GppNHP disruption HTRF assay (Biological Example 1); assay type: binding; settings: KRAS G12D, GppNHp-loaded; Table 11
T4 construct: Avi-KRAS G12D (1-169)
T4 sequence (P01116 1-169 isoform P01116-2 G12D): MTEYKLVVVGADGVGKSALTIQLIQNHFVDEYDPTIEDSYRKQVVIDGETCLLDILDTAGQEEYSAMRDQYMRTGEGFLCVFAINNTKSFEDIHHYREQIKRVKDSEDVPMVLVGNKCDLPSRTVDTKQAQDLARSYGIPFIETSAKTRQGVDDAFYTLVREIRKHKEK
In short: as §1

GP2d cells (KRAS G12D) = test: Cell-based pERK HTRF assay in GP2d cell (Biological Example 2); settings: GP2d (KRAS G12D) cells, pERK HTRF
In short: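 Phospho-ERK in lysed cells was detected by HTRF using Eu cryptate and d2 antibodies, read between 4 and 24 h at room temperature. Prior to lysis, KRAS G12D GP2d cells, seeded the day before in DMEM with 10% FBS, were exposed to compounds for 60 min. Compounds were tested as 9-point half-log curves from 1 μM or 100 nM top, with 0.25% DMSO.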

T1 sequence (P01116 1-169 isoform P01116-2 G12R): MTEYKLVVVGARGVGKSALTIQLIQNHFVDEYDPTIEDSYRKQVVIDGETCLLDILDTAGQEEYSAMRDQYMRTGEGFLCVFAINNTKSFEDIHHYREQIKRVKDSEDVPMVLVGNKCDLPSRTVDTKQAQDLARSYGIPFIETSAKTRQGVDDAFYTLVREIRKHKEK

IC50 [1] [nM] | IC50 [2] [nM] | IC50 [3] [nM] | IC50 [4] [nM] | IC50 (GP2d cells (KRAS G12D); GP2d) [nM] | IC50 (GP2d cells (KRAS G12D)) [nM] | SMILES
100 to 1000 | 100 to 1000 | 100 to 1000 | < 100 | < 100 |  | CN(C[C@H](O)CO)c1nc(OC[C@@]23CCCN2C[C@H](F)C3)nc2c(F)c(-c3ccc(F)c4sc(N)c(C#N)c34)c(C(F)(F)F)cc12 [Compound 79]
100 to 1000 | 100 to 1000 | 100 to 1000 | 100 to 1000 | < 100 |  | COC[C@@H]1[C@H](N(C)c2nc(OC[C@@]34CCCN3C[C@H](F)C4)nc3c(F)c(-c4ccc(F)c5sc(N)c(C#N)c45)c(C(F)(F)F)cc23)CCN1C(C)=O [Compound 117]
> 10000 | > 10000 | > 10000 | 1000 to 10000 | 100 to 1000 |  | CC(=O)N1CCN(c2nc(OC[C@@]34CCCN3C[C@H](F)C4)nc3c(F)c(-c4ccc(F)c5sc(N)c(C#N)c45)c(C(F)(F)F)cc23)C[C@H]1CC#N [Compound 184]
100 to 1000 | 100 to 1000 | 100 to 1000 | 100 to 1000 | < 100 |  | CN(c1nc(OC[C@@]23CCCN2C[C@H](F)C3)nc2c(F)c(-c3ccc(F)c4sc(N)c(C#N)c34)c(C(F)(F)F)cc12)[C@H]1CCOC1 [Compound 133]
100 to 1000 | 100 to 1000 | 100 to 1000 | 100 to 1000 | < 100 |  | CCN(CCO)c1nc(OC[C@@H]2CCCN2C)nc2c(F)c(-c3ccc(F)c4sc(N)c(C#N)c34)c(C(F)(F)F)cc12 [Compound 179]
100 to 1000 | 100 to 1000 | 100 to 1000 | < 100 | < 100 |  | N#Cc1c(N)sc2c(F)ccc(-c3c(C(F)(F)F)cc4c(N5CC6CCC(C5)C6CO)nc(OC[C@@]56CCCN5C[C@H](F)C6)nc4c3F)c12 (some centres unmarked) [Compound 47]
1000 to 10000 | 100 to 1000 | 1000 to 10000 | 100 to 1000 | 100 to 1000 |  | C[C@H](O)C1CCN(c2nc(OC[C@@]34CCCN3C[C@H](F)C4)nc3c(F)c(-c4ccc(F)c5sc(N)c(C#N)c45)c(C(F)(F)F)cc23)CC1 [Compound 50]
100 to 1000 | 100 to 1000 | 100 to 1000 | 100 to 1000 | < 100 |  | CCCN(C)c1nc(OC[C@@]23CCCN2C[C@H](F)C3)nc2c(F)c(-c3ccc(F)c4sc(N)c(C#N)c34)c(C(F)(F)F)cc12 [Compound 120]
100 to 1000 | 100 to 1000 | 100 to 1000 | < 100 | < 100 |  | CN(c1nc(OC[C@@]23CCCN2C[C@H](F)C3)nc2c(F)c(-c3ccc(F)c4sc(N)c(C#N)c34)c(C(F)(F)F)cc12)C(CO)CO [Compound 80]
100 to 1000 | 100 to 1000 | 1000 to 10000 | 100 to 1000 | < 100 |  | CC(=O)N1CCN(c2nc(OC[C@@]34CCCN3C[C@H](F)C4)nc3c(F)c(-c4ccc(F)c5sc(N)c(C#N)c45)c(C(F)(F)F)cc23)CC1 [Compound 100]
100 to 1000 | 100 to 1000 | 100 to 1000 | 100 to 1000 | < 100 |  | CCN(c1nc(OC[C@@]23CCCN2C[C@H](F)C3)nc2c(F)c(-c3ccc(F)c4sc(N)c(C#N)c34)c(C(F)(F)F)cc12)[C@@H]1CCN(C(C)=O)[C@@H]1COC [Compound 118]
100 to 1000 | 100 to 1000 | 1000 to 10000 | 100 to 1000 | < 100 |  | N#Cc1c(N)sc2c(F)ccc(-c3c(C(F)(F)F)cc4c(N5C[C@@H](F)[C@@H](F)C5)nc(OC[C@@]56CCCN5C[C@H](F)C6)nc4c3F)c12 [Compound 157]
100 to 1000 | 100 to 1000 | 100 to 1000 | 100 to 1000 | < 100 |  | CN1CCC[C@H]1COc1nc(N(C)[C@H]2C[C@@H](O)C2)c2cc(C(F)(F)F)c(-c3ccc(F)c4sc(N)c(C#N)c34)c(F)c2n1 [Compound 35]
100 to 1000 | 100 to 1000 | 100 to 1000 | 100 to 1000 |  | < 100 | CN(c1nc(OC[C@@]23CCCN2C[C@H](F)C3)nc2c(F)c(-c3ccc(F)c4sc(N)c(C#N)c34)c(C(F)(F)F)cc12)[C@@H]1CCN(S(C)(=O)=O)C1 [Compound 95]
1000 to 10000 | 1000 to 10000 | > 10000 | 1000 to 10000 | < 100 |  | CCC(=O)N1C[C@H](C)N(c2nc(OC[C@@]34CCCN3C[C@H](F)C4)nc3c(F)c(-c4ccc(F)c5sc(N)c(C#N)c45)c(C(F)(F)F)cc23)C[C@H]1C (atropisomer, axis not shown) [Compound 99]
100 to 1000 | 100 to 1000 | 100 to 1000 | 100 to 1000 | 100 to 1000 |  | N#Cc1c(N)sc2c(F)ccc(-c3c(C(F)(F)F)cc4c(N5CCC6(CC5)CC(O)C6)nc(OC[C@@]56CCCN5C[C@H](F)C6)nc4c3F)c12 [Compound 45]
> 10000 | > 10000 | > 10000 | > 10000 | > 1000 |  | CN(c1nc(OC[C@@]23CCCN2C[C@H](F)C3)nc2c(F)c(-c3ccc(F)c4sc(N)c(C#N)c34)c(C(F)(F)F)cc12)[C@@H]1CCC[C@H]1CO [Compound 87]
100 to 1000 | 100 to 1000 | 1000 to 10000 | 100 to 1000 | < 100 |  | CN(c1nc(OC[C@@]23CCCN2C[C@H](F)C3)nc2c(F)c(-c3ccc(F)c4sc(N)c(C#N)c34)c(C(F)(F)F)cc12)[C@H]1C[C@@](C)(O)C1 [Compound 31, 2-amino-7-fluoro-4-(8-fluoro-2-(((2R,7aS)-2-fluorotetrahydro-1H-pyrrolizin-7a(5H)-yl)methoxy)-4-(((1s,3R)-3-hydroxy-3-methylcyclobutyl)(methyl)amino)-6-(trifluoromethyl)quinazolin-7-yl)benzo[b]thiophene-3-carbonitrile]
100 to 1000 | 1000 to 10000 | 1000 to 10000 | 100 to 1000 | < 100 |  | CCN(c1nc(OC[C@@]23CCCN2C[C@H](F)C3)nc2c(F)c(-c3ccc(F)c4sc(N)c(C#N)c34)c(C(F)(F)F)cc12)C1CC1 [Compound 155]
1000 to 10000 | 100 to 1000 | 1000 to 10000 | 100 to 1000 | 100 to 1000 |  | CN(c1nc(OC[C@@]23CCCN2C[C@H](F)C3)nc2c(F)c(-c3ccc(F)c4sc(N)c(C#N)c34)ccc12)[C@H]1C[C@@H](O)C1 [Compound 28]
100 to 1000 | 100 to 1000 | 100 to 1000 | 100 to 1000 | < 100 |  | CCN(CCC#N)c1nc(OC[C@@]23CCCN2C[C@H](F)C3)nc2c(F)c(-c3ccc(F)c4sc(N)c(C#N)c34)c(C(F)(F)F)cc12 [Compound 166]
100 to 1000 | 100 to 1000 | 1000 to 10000 | 100 to 1000 | 100 to 1000 |  | CN(c1nc(OC[C@@]23CCCN2C[C@H](F)C3)nc2c(F)c(-c3ccc(F)c4sc(N)c(C#N)c34)c(C#N)cc12)[C@H]1C[C@@H](O)C1 [Compound 32, 7-(2-amino-3-cyano-7-fluoro-benzothiophen-4-yl)-8-fluoro-2-[[(2R,8S)-2-fluoro-1,2,3,5,6,7-hexahydropyrrolizin-8-yl]methoxy]-4-[(3-hydroxycyclobutyl)-methyl-amino]quinazoline-6-carbonitrile]
100 to 1000 | 100 to 1000 | 100 to 1000 | 100 to 1000 | < 100 |  | CN(c1nc(OC[C@@]23CCCN2C[C@H](F)C3)nc2c(F)c(-c3ccc(F)c4sc(N)c(C#N)c34)c(C(F)(F)F)cc12)[C@H]1CCS(=O)(=O)C1 [Compound 94, 2-amino-4-(4-(((S)-1,1-dioxidotetrahydrothiophen-3-yl)(methyl)amino)-8-fluoro-2-(((2R,7aS)-2-fluorotetrahydro-1H-pyrrolizin-7a(5H)-yl)methoxy)-6-(trifluoromethyl)quinazolin-7-yl)-7-fluorobenzo[b]thiophene-3-carbonitrile]
100 to 1000 | 100 to 1000 | 100 to 1000 | 100 to 1000 | < 100 |  | N#Cc1c(N)sc2c(F)ccc(-c3c(C(F)(F)F)cc4c(N5CCC(CO)CC5)nc(OC[C@@]56CCCN5C[C@H](F)C6)nc4c3F)c12 [Compound 44, 2-amino-7-fluoro-4-(8-fluoro-2-(((2R,7aS)-2-fluorotetrahydro-1H-pyrrolizin-7a(5H)-yl)methoxy)-4-(4-(hydroxymethyl)piperidin-1-yl)-6-(trifluoromethyl)quinazolin-7-yl)benzo[b]thiophene-3-carbonitrile]

SMILES | IC50 [1] [nM] | IC50 [2] [nM] | IC50 [3] [nM] | IC50 [4] [nM] | IC50 (GP2d cells (KRAS G12D); GP2d) [nM] | IC50 (GP2d cells (KRAS G12D)) [nM]
N#Cc1c(N)sc2c(F)ccc(-c3c(C(F)(F)F)cc4c(N5C6CCC5COC6)nc(OC[C@@]56CCCN5C[C@H](F)C6)nc4c3F)c12 [Compound 131] | 100 to 1000 | 100 to 1000 | 100 to 1000 | 100 to 1000 | < 100 | 
